Key:
[1] = tested on: vascular (aortic) guanylyl cyclase activity; assay: Prevention of nitrate tolerance: aortic cGMP after continuous NTG infusion, with or without the compounds; format: in vivo, rat; conditions: for tolerance development to NTG / NO-donors (result in words): co-administration with nitrates
Procedure: (§1) • a) Acute effects: Rats (Spargue-Dawely) weighing 300-400 g were treated with an intravenous (i.v.) bolus dose of 2 mg nitroglycerin (NTG) before and after pre-treatment with the compounds (50 mg/kg) administered intraperitoneally. Compounds 1 and 2 from FIG. 1, compounds 9 and 10 from FIG. 2, compounds 17 and 18 from FIG. 3, compounds 25 a nd 26 from FIG. 4 were dissolved in a mixture of ethanol:propylene glycol:water (1:1:1) and administered in 1 ml intraperitoneally one hour before NTG administration. One minute after the NTG administration, the rats were sacrificed by decapitation and the aorta was removed quickly, immersed in a phosphate buffer solution containing 20 mM EDTA and immediately frozen in liquid nitrogen add stored at −70° until analyzed. Next day, the tissue were analyzed for their cGMP content. After thawing, tissue were weighed and homogenized in EDTA-phosphate buffer, centrifuged and the super collected into another tube. The pellet was washed with 1 ml buffer, vortex-mixed, centrifuged and the supernatant added to the second tube. 2 ml of acetonitrile were added to the tube containing the combined extracts and the tube vortex-mixed, centrifuged and the supernatant collected to another clean tube. The aqueous-acetonitrile solution in this latter tube was evaporated to dryness and the reside dissolved in assay buffer. The cGMP content of the solution was determined using a radioimmunoassay (RIA-Amersham) as previously reported by us.
Similar significant increases were also obtained when pre-treatment was performed with other compounds (see above). • b) Prevention: Rat were administered a continuos infusion of NTG known to induce tolerance with or without concomitant administration of the compounds (the same tested for the acute effects). The compounds were administered either in continuos i.v. infusion or intraperitoneally in 4 separated doses (q 6 hours). The effects on vascular (aortic) guanylyl cyclase activity was then evaluated as described above for control rats.

[2] = tested on: tissue guanylyl cyclase response to nitrates (aortic cGMP); assay: Acute effects: aortic cGMP after NTG bolus, with or without pre-treatment with the compounds; format: in vivo, rat
Procedure: as §1, with “The aqueous-acetonitrile solution in this latter tube was evaporated to dryness and the reside dissolved in assay buffer.” left out, “us. […]” for “us.”

lipoyl lipoate
tolerance development to NTG / NO-donors (result in words) [1]: prevents/retards tolerance development

O=C(O)CCCCC1CCSS1 (centres unmarked) [LA, 1,2-dithiolane-3-valeric acid]
tissue guanylyl cyclase response to nitrates (result in words) ([2]; pre-treatment or co-administration with nitrate / NO donor): enhances its activity
tolerance development to NTG / NO-donors (result in words) [1]: retards tolerance development

O=[N+]([O-])OCC(CO[N+](=O)[O-])O[N+](=O)[O-] [NTG, nitroglycerin]
cGMP ([2]; NTG alone, i.v. bolus 2 mg, aorta removed one minute after NTG): 175 ± 13 pmol/g tissue
cGMP ([1]; NTG-pretreatment: continuous NTG infusion known to induce tolerance, no compound, aorta): 64 ± 9 pmol/g tissue

— US6900338B1, “Scavenger compounds” (Yissum Research Development Company of the Hebrew …, priority 1998, dated 2005)
